Source: patent US12383556B2, “Methods of treating Sjögren's syndrome using a Bruton's tyrosine kinase inhibitor” (NOVARTIS AG, priority 2019, dated 2025)

Key:
[1] = Blood exposure of compound (I) after oral dose in rats; assay type: in vivo; conditions: female, rat, 1 mg/kg dose
Protocol: From the experimental data it was apparent that a short transient systemic exposure of compound (I) is sufficient to achieve full BTK occupancy in several tissues at low oral doses of 1-3 mg/kg. […] This very low and transient systemic exposure is consistent with the PK/PD model typical of irreversible inhibitors.

[2] = test system: mast cell FcγRIII-mediated inflammation; test: Reverse passive Arthus (RPA) model, skin swelling; assay type: in vivo
Protocol: As the levels of BTK-expressing cells in skin were too low to allow occupancy measurement, the duration of the PD effect in skin after single dose was assessed in the reverse passive Arthus (RPA) model of mast cell FcγRIII-mediated inflammation. In this model, the inhibition of skin swelling was maximal when compound (I) was dosed 2 hours prior to eliciting the Arthus reaction. The effect diminished gradually and reached baseline when the Arthus reaction was triggered 45 hours or later after compound (I) dosing.

[3] = First-in-human Part 4 multiple dose b.i.d. blood PK; assay type: in vivo
Source text: First-in-human study in up to approximately 168 healthy volunteers (HVs), of which 64 (in Parts 2 & 4) had asymptomatic atopic diathesis. • Part 1 was a double-blind (subject and investigator blind, sponsor unblinded), placebo-controlled single ascending dose (SAD) escalation study of 10 cohorts (N=80) • Part 2 was a double-blind (subject and investigator blind, sponsor unblinded), placebo-controlled multiple ascending dose (MAD) (13 doses over 12 days) escalation study employing once daily dosing in 6 cohorts in healthy volunteers with asymptomatic atopic diathesis (N=48) • Part 3 was a single dose open-label crossover food effect study in 12 HVs • Part 4 was a double-blind (subject and investigator blind, sponsor unblinded), placebo-controlled multiple dose (25 doses over 12 days) study employing twice daily dosing in 2 cohorts of healthy volunteers with asymptomatic atopic diathesis (N=16)
In Parts 2 and 4, subjects were admitted on Day −2 or −1 for baseline safety assessments and to confirm eligibility. Eligible subjects received the first dose of compound (I) under fasting conditions on Day 1, and continued to take study medication under fasting conditions up to and including Day 12. Subjects were domiciled from Day −2 or −1 until the morning of Day 16, which equals 96 hours after the last dose of compound (I) was received. In Parts 2 and 4, the study medication was given once daily and twice daily respectively (details are found in the schedule of assessments).
Subjects were assigned to one of the following cohorts. In each cohort, 8 subjects were randomized to either Compound (I) or matching placebo in a 6:2 ratio. • Cohort 1: multiple oral doses of 100 mg Compound (I) or matching placebo in a bid regimen • Cohort 2: multiple oral doses of 200 mg Compound (I) or matching placebo in a bid regimen
Pharmacokinetic samples were obtained in blood and evaluated in all subjects at all dose levels. The samples from placebo subjects were not analyzed. […] Compound (I) concentrations were determined in blood by a validated LC-MS/MS method.

[4] = test system: FcεR1-mediated basophil activation; test: Ex vivo basophil activation (CD63, CD203c), whole blood stimulated with anti-IgE, flow cytometry; assay type: in vivo, human
Protocol: In addition, ex vivo inhibition of basophil activation (monitored by surface expression of CD63 and CD203c) was used as distal mechanistic biomarker to test downstream PD effects of compound (I). To determine the PD effect of compound (I) on basophil activation, whole blood was stimulated ex vivo with anti-IgE. Degranulation was evaluated by percentage of CD63+ and CD203+ basophils by flow cytometry.

[5] = test system: defined allergen response (wheal size); test: Skin prick test (SPT) in healthy atopic subjects; assay type: in vivo, human; conditions: for dose at which reduction of wheal size in SPT started to plateau: multiple ascending dose, q.d.
Protocol: The ability of compound (I) to inhibit a defined allergen response has been evaluated by means of the skin prick test (SPT) in healthy atopic subjects in the MAD study part of the first in human study. SPT was performed prior to dosing (at screening, baseline and pre-dose on Day 1) and at different time points after the first dose (Day 1) and after 11 days of once daily dosing (Day 12).

C=CC(=O)N(C)CCOc1c(N)ncnc1-c1cc(F)cc(NC(=O)c2ccc(C3CC3)cc2F)c1C [Compound of Formula (I), N-(3-(6-Amino-5-(2-(N-methylacrylamido)ethoxy)pyrimidin-4-yl)-5-fluoro-2-methylphenyl)-4-cyclopropyl-2-fluorobenzamide]
concentration at 0.5 h ([1]; 0.5 hours post dose): 49.1 nM
concentration at 5 h ([1]; 5 hours post dose): 5.6 nM
time after dosing of Arthus trigger at which effect reached baseline ([2]; single dose): ≥ 45 h
inhibition of skin swelling ([2]; single dose 2 hours prior to eliciting the Arthus reaction): maximal
increase of AUCtau from 100 mg to 200 mg b.i.d. ([3]; day 12): dose proportional increase
increase of Cmax from 100 mg to 200 mg b.i.d. ([3]; day 12): 1.33 fold
Tmax ([3]; human, blood, oral, b.i.d. regimen 100 mg and 200 mg): ~1 h
reduction of CD63 up-regulation ([4]; 10 mg q.d., as restated): > 80%
inhibition of CD63 upregulation ([4]; 10 mg q.d., day 12 (steady state), 8 h after administration): > 90%
maximum trough inhibition of CD203c activation ([4]; Day 12, multiple doses): only achieved with b.i.d. administration of 100 mg and 200 mg
trough level inhibition of CD63 ([4]; doses ≥50 mg q.d., day 12): > 90%
inhibition of ex vivo basophil activation measured by CD63 ([4]; single dose 60 mg, 24 h post dose): > 89%
maximum inhibition of CD203c ([4]; single dose 200 mg, 24 h post dose): ~50%
inhibition of ex vivo basophil activation measured by CD63 ([4]; single doses higher than 60 mg, 24 h post dose): ~100%
inhibition of wheal size in SPT ([5]; 10 mg q.d.): minimal inhibition
dose at which reduction of wheal size in SPT started to plateau ([5]; listed as compound (I)): around 100 mg
dose at which reduction of wheal size in SPT started to plateau ([5]; listed as compound of Formula (I)): 100 mg
